In patent publication US20170349592A1, “POLYMORPHIC SUBSTANCE OF YONKENAFIL HYDROCHLORIDE, PREPARATION METHOD THEREFOR, AND COMPOSITION AND USE THEREOF” (Yangtze River Pharmaceutical Group Co., Ltd., priority 2014, published 2017):

Experiment: Standing of the crystalline form at room temperature (polymorph stability)
Assay type: physicochemical
Conditions: standing at the condition of room temperature for one week; monohydrochloride

Structure (SMILES): CCCn1cc(C)c2c(=O)[nH]c(-c3cc(S(=O)(=O)N4CCN(CC)CC4)ccc3OCC)nc21.Cl [A-type polymorphic substance of yonkenafil hydrochloride] [2-[2-ethoxy-5-(4-ethylpiperazine-1-sulfonyl)phenyl]-5-methyl-7-n-propyl-3,7-dihydropyrrolo[2,3-d]pyrimidin-4-one monohydrochloride]
- stability of the crystalline form (polymorphic conversion): more stable than the B-type polymorphic substance of yonkenafil hydrochloride

Structure (SMILES): CCCn1cc(C)c2c(=O)[nH]c(-c3cc(S(=O)(=O)N4CCN(CC)CC4)ccc3OCC)nc21.Cl [B-type polymorphic substance of yonkenafil hydrochloride] [2-[2-ethoxy-5-(4-ethylpiperazine-1-sulfonyl)phenyl]-5-methyl-7-n-propyl-3,7-dihydropyrrolo[2,3-d]pyrimidin-4-one monohydrochloride]
- stability of the crystalline form (polymorphic conversion): can be converted into the A-type polymorphic substance of yonkenafil hydrochloride
